In series [1] the test system is macrolide-resistant M. avium. Kind of series: MIC by REMA, macrolide-resistant M. avium strains.
Excerpt: (§4) Reference strains were purchased from the American Type Culture Collection (ATCC; Manassas, VA, USA). All clinical MAC isolates, including macrolide-susceptible and macrolide-resistant strains, were kindly provided by Samsung Medical Center (SMC; Seoul, South Korea) and Asan Medical Center (AMC; Seoul, South Korea). All strains were cultivated in Middlebrook 7H9 liquid broth (Difco Laboratories, Detroit, MI) supplemented with 10% oleic acid-albumin-dextrose-catalase (OADC) or plated on Middlebrook 7H10 agar (Difco Laboratories) with 10% OADC enrichment at 37°C.
(§5) The MICs of all the reagents were determined using the REMA method based on guidelines by the Clinical and Laboratory Standards Institute ([57]). […] The cultures were diluted to an OD600 = 0.001 in 7H9 broth with 5% OADC. […] Two controls (broth only and bacteria only) were incubated to check for other contamination (broth only) and the growth of tested bacteria (bacteria only).
(§6) PCR amplification and sequencing for CLR were based on 23S rRNA. The primers and PCR conditions were as reported previously ([59]). PCR was carried out in a final volume of 20 µL and contained EzPCR Basic 5 × premix (ELPIS, Daejeon, South Korea), 13 µL of sterile dH2O, 1 µL of each forward and reverse primer, and 1 µL of template DNA. The PCR products were run on 1% agarose gels and purified using a NEXprep Gel/PCR Purification Mini Kit (Geneslabs, Gyeonggi, South Korea) for DNA cleanup. Purified PCR products were sequenced by Sanger sequencing in Bionics (Seoul, South Korea) with their gene-specific forward and reverse primers. Sequences obtained from Bionics were subjected to BLAST searches to compare nucleotide sequences with reference strains.
Series [2] concerns BMDMs. Kind of series: Cell cytotoxicity test (trypan blue cell counting). The format is cell-based, BALB/c mice. Conditions: 20 µg/mL, overnight incubation (Fig. S4). The method, then: (§1) BMDMs were obtained from 6-week-old female BALB/c mice. Bone marrow cells were differentiated into BMDMs using Dulbecco’s Modified Eagle Medium (Biowest) supplemented with 10% fetal bovine serum (Biowest) and 10% L929 cell supernatant as previously described ([58]).
Cell viability was evaluated using trypan blue cell counting. BMDMs were plated at 4 × 10^5 cells/mL along with antibiotics in a 48-well cell culture plate. The antibiotics were serially diluted twofold from the highest concentration of 20 μg/mL to 1.25 μg/mL. After overnight incubation at 37°C with 5% CO2, BMDMs were isolated, and viable cells were counted using trypan blue dye exclusion. Cell viability was calculated as a percentage compared to the control. All experiments were repeated at least three times independently.

For series [3], the system named is M. intracellulare ATCC 13950. To be noted: synergism FICI ≤0.5, additive 0.5 < FICI ≤ 1, indifferent 1 < FICI ≤ 4, antagonistic FICI >4. The method, then:
(§2) To evaluate the efficacy of the combination of agent A and agent B, a fractional inhibitory concentration (FIC) index was calculated as follows: FICI = (FIC of agent A) + (FIC of agent B) = (MIC of agent A in combination/MIC of agent A alone) + (MIC of agent B in combination/MIC of agent B alone). Synergism is defined as FICI ≤0.5, additive as 0.5 < FICI ≤ 1, indifferent as 1 < FICI ≤ 4, and antagonistic as FICI >4. The cultured bacteria were diluted to a 0.005 OD600 in 7H9 broth containing 5% OADC, and the antimicrobial agents were prepared by serial dilutions to a final concentration of 0.03–4 μg/mL. For the evaluation of inhibitory concentrations, the plates were incubated at 37°C for 5–7 d. Then, MIC values were assessed by REMA, and the FICI was calculated.

Series [4] deals with M. avium ATCC 700898. Conditions: synergism FICI ≤0.5, additive 0.5 < FICI ≤ 1, indifferent 1 < FICI ≤ 4, antagonistic FICI >4. The procedure:
as §2

Series [5] concerns macrolide-resistant M. avium clinical isolates in BMDMs. Nature of the series: Intracellular activity in BMDMs, macrolide-resistant M. avium clinical isolates. The format is cell-based, Mycobacterium avium. To be noted: five macrolide-resistant M. avium clinical isolates, 10 µg/mL, 72 h (Fig. 5). The method, then: as §1
(§3) BMDMs were seeded at 4 × 10^5 cells/mL in a 48-well plate and incubated overnight at 37°C. MAC strains were infected at a multiplicity of infection of 3 for 4 h and washed with DPBS twice. The cells were then cultured in the absence or presence of drugs in triplicate wells for 72 h. After incubation, the cells were lysed with 0.05% Triton X-100, and the cell lysates serially diluted with DPBS were spotted on 7H10 agar plates supplemented with OADC to count the number of viable bacteria. Colonies were enumerated after 7 d of incubation at 37°C, and the values are reported as the mean CFU ± standard deviation (SD) per mL. All experiments were repeated at least three times independently.

The test system of series [6] is M. avium. Nature of the series: MIC by resazurin microtiter assay (REMA), M. avium strains.
Description: (§7) Reference strains were purchased from the American Type Culture Collection (ATCC; Manassas, VA, USA). […] All strains were cultivated in Middlebrook 7H9 liquid broth (Difco Laboratories, Detroit, MI) supplemented with 10% oleic acid-albumin-dextrose-catalase (OADC) or plated on Middlebrook 7H10 agar (Difco Laboratories) with 10% OADC enrichment at 37°C.
as §5
Series [7] has as its system M. intracellulare. Kind of series: MIC by resazurin microtiter assay (REMA), M. intracellulare strains.
Description: as §7, §5
For series [8], the system named is MAC in murine BMDMs. Kind of series: Intracellular anti-MAC activity in infected BMDMs, summary statements for MAC. Format: cell-based, Mycobacterium avium complex. To be noted: for intracellular growth of MAC in BMDMs: MAC-infected BMDMs, 72 h (Fig. 2). The method, then:
as §1, §3

The nature of series [9]: Aqueous kinetic solubility. To be noted: for solubility at 2 h: aqueous buffer, kinetic from dmso stock, free form, deionized water pH 7.4, 1% DMSO. Format: physicochemical. The procedure:
The aqueous kinetic solubility was determined by preparing a 20 mM DMSO stock solution of test compounds and incubating an aliquot of this solution in deionized water at pH 7.4 to set a 1% final concentration of DMSO. In the case of HCl salt compounds, 1–2 mg of compound was weighed and dissolved in deionized water to yield an approximately 10 mg/mL solution. After initial mixing using brief vortexing and sonication, samples were equilibrated by shaking for 2 h at room temperature. Suspensions or solutions with visible particles were filtered through 0.22 µm PVDF membrane filters. The dissolved drug concentration was analyzed using UPLC-MS. To determine the solubility of the HCl salt, 1 mg of compound was weighed into a 2 mL glass tube, and a fixed volume of deionized water was added to yield an approximately 10 mg/mL solution. The solution was equilibrated by shaking for 24 h at room temperature. After equilibration, the vials were visually examined. If a clear solution was obtained, solubility was reported as >mg/mL.

The test system of series [10] is macrolide-resistant M. intracellulare. Nature of the series: MIC by REMA, macrolide-resistant M. intracellulare strains. To be noted: Mycobacterium intracellulare.
Excerpt: as §4, §5, §6
Series [11] deals with M. avium in murine BMDMs. Kind of series: Intracellular anti-MAC activity in infected BMDMs, M. avium. Format: cell-based, Mycobacterium avium. Conditions: M. avium ATCC 700898, 10 µg/mL, 72 hr. The method, then:
as §1, §3

Series [12] deals with M. intracellulare in murine BMDMs. Nature of the series: Intracellular anti-MAC activity in infected BMDMs, M. intracellulare. To be noted: M. intracellulare ATCC 13950, 10 µg/mL, 72 hr. The format is cell-based, Mycobacterium intracellulare. The procedure:
as §1, §3

Series [13] relates to MAC strains. Kind of series: MIC by REMA, summary statements for MAC strains. The format is cell-based, Mycobacterium avium complex. Conditions: Mycobacterium avium; range over tested MAC strains (Table 2); read-out: in vitro MIC for the tested MAC strains.
The test system of series [14] is MAC in murine BMDMs. The arrangement: method as in PMID 33519787. To be noted: cited from earlier work.
Where [15] appears, read: Mycobacterium avium, ATCC700898.
Setting [16] is: Mycobacterium intracellulare, ATCC13950, M. intracellulare (ATCC 13950), reference strain.
The mark [17] stands for this setting: Mycobacterium intracellulare, M. intracellulare (SMC#8).
Setting [18] is: Mycobacterium intracellulare, M. intracellulare (SMC#12).
[19] abbreviates: Mycobacterium intracellulare, M. intracellulare (SMC#699).

≈ marks a conversion by molar mass, not a printed value. Entries after “also recorded” stand apart in the source; their conditions may differ.

As to `C/C=C1\NC(=O)[C@H]([C@@H](C)O)NC(=O)c2csc(n2)-c2ccc(-c3nc(-c4nc(C(=O)NC5(C(=O)NCCCN6CCOCC6)CC5)cs4)cs3)nc2-c2csc(n2)[C@H]([C@@H](C)O)NC(=O)c2csc(n2)[C@H](C(C)C)NC(=O)c2csc1n2` [AJ-037], the minimum inhibitory concentration (MIC) in series [1] (M. avium (SMC#1216), 23S rRNA A2058/A2059 C/A) is 0.125 µg/mL (≈ 0.103 µM); in series [1] (Mycobacterium avium) it was 0.125 µg/mL (≈ 0.103 µM); in series [1] (Mycobacterium avium, M. avium (SMC#420), 23S rRNA A2058/A2059 C/A) it was 0.5 µg/mL (≈ 0.412 µM); in [1] (Mycobacterium avium, M. avium (SMC#422), 23S rRNA A2058/A2059 A/G), 1 µg/mL (≈ 0.824 µM); in series [1] (Mycobacterium avium, M. avium (SMC#1213), 23S rRNA A2058/A2059 T/A), 0.5 µg/mL (≈ 0.412 µM); in series [6] (M. avium (SMC#7)) it was 0.25 µg/mL (≈ 0.206 µM). The MIC in series [6] (Mycobacterium avium) was 0.25 µg/mL (≈ 0.206 µM); in [6] (setting [15]), 0.25 µg/mL (≈ 0.206 µM); in series [6] (Mycobacterium avium, M. avium (SMC#6)), 0.125 µg/mL (≈ 0.103 µM); in series [6] (Mycobacterium avium, M. avium (SMC#1637)) it was 0.125 µg/mL (≈ 0.103 µM); in [7] (M. intracellulare (SMC#9)), 0.125 µg/mL (≈ 0.103 µM); in series [7] (M. intracellulare (SMC#831)) it was 0.125 µg/mL (≈ 0.103 µM). The minimum inhibitory concentration (MIC) in [7] (M. intracellulare (SMC#2087)) was 0.125 µg/mL (≈ 0.103 µM); in [7] (Mycobacterium intracellulare), 0.125 µg/mL (≈ 0.103 µM); in series [7] (setting [16]), 0.25 µg/mL (≈ 0.206 µM); in [7] (setting [17]), 0.25 µg/mL (≈ 0.206 µM); in series [7] (setting [18]) it was 0.25 µg/mL (≈ 0.206 µM); in [7] (setting [19]), 0.25 µg/mL (≈ 0.206 µM). For the same molecule, the MIC in [10] (M. intracellulare (AMC#24), 23S rRNA A2058/A2059 G/A) stood at 0.125 µg/mL (≈ 0.103 µM); in series [10] (M. intracellulare (SMC#104), 23S rRNA A2058/A2059 G/A), 0.125 µg/mL (≈ 0.103 µM); in series [10] (M. intracellulare (SMC#414), 23S rRNA A2058/A2059 A/G) it was 0.125 µg/mL (≈ 0.103 µM). Further, the Cell viability entry in series [2] is “decreased”. Also, the “drug-drug interaction with CLR” value was “relatively weak but synergistic effect; also recorded: Synergistic effects” in [3] and “strongest synergistic effect; also recorded: Synergistic effects” in series [4]. Further, the “intracellular bacterial growth in BMDMs” value in series [5] is recorded as “notably inhibited intracellular bacterial growth”. Moreover, the “intracellular growth of MAC in BMDMs” value in series [8] is on record as “remarkably inhibited the intracellular growth of MAC to a similar degree as CLR; also recorded: significantly reduced the number of MAC CFUs inside macrophages”. The “intracellular activity in BMDMs infected with macrolide-resistant MAC clinical isolates” value in [8] (macrolide-resistant MAC, 10 µg/mL, 72 h (Fig. 5 and 6)) was “significant decrease in CFUs”. Moreover, the solubility at 2 h in [9] came out at 103 µg/mL (≈ 84.9 µM). Moreover, the “Fold increase, HCl salt” value in [9] (solubility of HCl salt compared to MP2) is on record as “×71,428 fold”. Further, the “Fold increase, Free form” value in [9] (solubility of free form compared to MP2) is “×1,471 fold”. The solubility in series [9] (thermodynamic from solid, HCl salt in deionized water) came out at 5000 µg/mL.
As to `C/C=C(\NC(=O)c1csc(-c2csc(-c3ccc4c(n3)-c3csc(n3)[C@H]([C@@H](C)O)NC(=O)c3csc(n3)[C@H](C(C)C)NC(=O)c3csc(n3)/C(=C/C)NC(=O)[C@H]([C@@H](C)O)NC(=O)c3csc-4n3)n2)n1)C(=O)NCC(C)=O` [MP2, micrococcin P2, reference compound], the Cell viability entry in series [2] is on record as “decreased”. Further, the “intracellular activity (CFU) in BMDMs” value in [11] and in series [12] was “ineffective” in each case. The MIC in [6] (M. avium (SMC#6)), in [6] (M. avium (SMC#7)), in series [6] (M. avium (SMC#1637)), in series [6] (Mycobacterium avium), in series [6] (setting [15]) and in series [7] (setting [16]) was 0.125 µg/mL (≈ 0.109 µM) in each case. For the same molecule, the MIC was determined as 0.125 µg/mL (≈ 0.109 µM) in series [7] (Mycobacterium intracellulare, M. intracellulare (SMC#7)); 0.125 µg/mL (≈ 0.109 µM) in [7] (setting [17]); 0.125 µg/mL (≈ 0.109 µM) in series [7] (Mycobacterium intracellulare, M. intracellulare (SMC#9)); 0.125 µg/mL (≈ 0.109 µM) in series [7] (setting [18]); 0.125 µg/mL (≈ 0.109 µM) in series [7] (setting [19]); 0.125 µg/mL (≈ 0.109 µM) in series [7] (Mycobacterium intracellulare, M. intracellulare (SMC#831)). In addition, the MIC in series [7] (Mycobacterium intracellulare, M. intracellulare (SMC#2087)) was 0.125 µg/mL (≈ 0.109 µM); in [13], 0.125 to 0.5 µg/mL (≈ 0.109 to 0.438 µM). In addition, the “intracellular growth of MAC in BMDMs” value in series [8] was “completely abrogated”. The molecule further gave a solubility at 2 h in [9] of 0.07 µg/mL (≈ 0.0613 µM).
For the molecule `CO[C@H]1/C=C/O[C@@]2(C)Oc3c(C)c(O)c4c(O)c(c(/C=N/N5CCN(C)CC5)c(O)c4c3C2=O)NC(=O)/C(C)=C\C=C\[C@H](C)[C@H](O)[C@@H](C)[C@@H](O)[C@@H](C)[C@H](OC(C)=O)[C@@H]1C` [rifampicin], the “intracellular activity against MAC” value in series [14] is listed as “little intracellular activity”.

(Values after article PMC10580953, “In vitro and intracellular activities of novel thiopeptide derivatives against macrolide-susceptible and macrolide-resistant Mycobacterium avium complex” (Microbiology Spectrum, 2023).)
